Results reported in patent US20260216109A1, “TREATMENT OF SKIN DISORDERS WITH SHORT CHAIN FATTY ACIDS” (Temple University-Of The Commonwealth System of Higher …, priority 2023, published 2026).

How the values were obtained:
InflammaSkin® models = test: Hematoxylin & Eosin (H&E) staining of InflammaSkin models (skin structure, integrity, viability); type: cell-based, human; settings: Example 1; Day 7; Day 1-6: 1 μM Otezla or SCFA (45 μg/mL Ca-propionate + 1 mM Ca-/Mg-butyrate) systemic, 0.05% Betamethasone topical; vs untreated InflammaSkin
Experimental: (§1) A total of 16 biopsies of 15 mm diameter were produced from a single donor. Two NativeSkin® models with 12/15 mm silicon rings were produced from the biopsies according to standard procedures in place, and cultured under cell culture conditions (37° C., 5% CO2, max. humidity) for 7 days with 2 mL of standard NativeSkin® medium renewed every day. Fourteen PSO-InflammaSkin® models with 12/15 mm silicon rings were produced by inducing in situ activation and Th17/Th1 polarization of skin resident T cells with a proprietary cocktail, and cultured under cell culture conditions (37° C., 5% CO2, max. humidity) for 7 days with 2 mL of PSO-InflammaSkin® culture medium renewed every day.
(§2) From Day 1 to Day 6, models were systemically treated with 1 μM Otezla or Short Chain Fatty Acids (SCFAs), or topically treated with positive control 0.05% Betamethasone
In these experiments, the SCFAs administered were 45 μg/mL of Ca-propionate and 1 mM mixture of salts (Ca-butyrate and Mg-butyrate). […]
Skin structure and integrity and viability were evaluated using Hematoxylin & Eosin (H&E) staining following treatment with Betamethasone, […] Otezla® (Apremilast), or SCFAs comprising butyric acid and propionic acid. […] Therefore, the donor sample was determined to remain viable over the course of the culture in the absence of inflammation/T-cell activation.

TNF-α = test: Multiplex (MSD V-PLEX) cytokine release, InflammaSkin: TNF-α; type: cell-based, human
Experimental: as §1, §2
In these experiments, the SCFAs administered were 45 μg/mL of Ca-propionate and 1 mM mixture of salts (Ca-butyrate and Mg-butyrate).
At Day 7, supernatants were collected and stored at −80° C. and skin models of all conditions were carefully unmolded. Skin biopsies were re-punched to eliminate the area under the silicon ring, fixed in 10% buffered formalin and processed for paraffin wax embedding.
Human pro-inflammatory cytokines released in the supernatant were quantified using the V-PLEX Human IL-17A Kit (MesoScale Discovery, reference: K151RFD-1) and V-PLEX Human TNFα Kit (MesoScale Discovery, reference: K151QWD-1). Values are expressed in pg/mL. For each condition, single values, mean and SEM were plotted using GraphPad Prism. Statistical analysis was performed using a One Way ANOVA test.
PSO-InflammaSkin® models were cultured and treated as described in Example 1. In these experiments, the SCFAs administered were 45 μg/mL of Ca-propionate and 1 mM mixture of salts (Ca-butyrate and Mg-butyrate).
Human pro-inflammatory cytokines released in the supernatant were quantified using the V-PLEX Human IL-17A Kit (MesoScale Discovery, reference: K151RFD-1) and V-PLEX Human custom Pro-inflammatory. Plate 1 comprised Proinflammatory Panel 1 (human) kit reference K15049 (panel IFN-γ and TNF-α). Plate 2 comprised TH17 Panel 1 (human) kit reference K15049 (panel IL-17A Gen B, IL-21, IL-22, IL-23, IL-27, IL-31, MIP-3α).
Samples were diluted four times for plate 2 and two times for plate 1. Samples and standards were assessed in duplicate. Plates were read on MesoScale Discovery Quickpleax SQ 120 plate reader and values expressed in pg/mL.
A statistical analysis was performed. Each condition was compared to the untreated InflammaSkin® condition. First, the distribution's normality of the two compared group was assessed. […] If the two distributions were normal, the homogeneity of variances was assessed using a Fisher test on the variances. […]

CCOc1cc([C@@H](CS(C)(=O)=O)N2C(=O)c3cccc(NC(C)=O)c3C2=O)ccc1OC [Otezla, Apremilast]
H&E: incidence of pyknosis, vacuolization and epidermal/dermal separation (InflammaSkin® models): reduce the incidence of pyknosis, vacuolization and epidermal/dermal separation | increase of the release of TNF-α (TNF-α; Example 1, Day 7 supernatant, 1 μM Otezla systemic, vs untreated InflammaSkin): ~2 fold | TNFα secretion (TNF-α; Example 2, Day 7 supernatant, 1 μM Otezla or SCFA systemic, 0.05% Betamethasone topical, vs untreated InflammaSkin): significantly increased | TNFα level (by MSD) (TNF-α; Example 2, Otezla-treated InflammaSkin (untreated about 1 μg/mL)): about 2 μg/mL
